Assay results: patent publication US9796674B2, “Benzyl urea derivatives for activating TGF-beta signaling” (THE BOARD OF TRUSTEES OF THE LELAND STANFORD JUNIOR …, priority 2013, dated 2017)
“Also recorded” adds a separate entry of the source.

Assays:
primary rat hepatocytes = assay: Cytotoxicity in primary rat hepatocytes; type: cell-based; conditions: 20 h
Method: In Vitro Cytotoxicity: The cytotoxicity of SRI-011381 was determined in primary rat hepatocytes and in VERO cells.
Rat hepatocytes were isolated by collagenase perfusion and allowed to form a monolayer overnight. The test compounds were added to the cells in 5 concentrations up to 250 μM. Cells were incubated with the test article for 20 h and then toxicity determined by the MTT cytotoxicity screen. Toxicity was evaluated against the vehicle control (DMSO) and a positive control, amitriptylin, was included with each experiment.

B103 neuroblastoma cells = assay: B103 live/dead cell assay with Aβ; type: cell-based, rat; conditions: for cell survival, protection relative to TGF-β1: percentage of live cells / percentage of rescue
Method: SRI-11381 is neuroprotective in vitro: To determine if the TGF-β-inducing capacity of SRI-011381 would translate into biologically beneficial effects, its neuroprotective potential was tested in B103 rat neuroblastoma cells and primary mouse neurons derived from E16 forebrains. B103 neuroblastoma cells were cultured in 24-well plates and exposed to an oligomeric preparation of Aβ together with compounds or recombinant TGF-β.
FIGS. 3A-3H illustrate that SRI-011381 protects cultured neurons from Aβ toxicity. B103 neuroblastoma cells were incubated with Aβ for 24 h. The compounds and TGF-β were added 2 h before Aβ. Following incubations live and dead cells were assessed with calcein-acetoxymethylester (CAM) and SYTOX Orange (Invitrogen), respectively.
B103 neuroblastoma cells: B103 neuroblastoma cells were cultured in Dulbecco's modified Eagle's medium containing 10% fetal calf serum and 1% v/v penicillin/streptomycin (Invitrogen) in a 5% CO2: 95% air atmosphere. 10^4 cells/well were seeded onto 24 well plates and cultured for 24 h before Aβ was added. The compounds and TGF-β were added 2 h before Aβ. Following a 24 h incubation with Aβ, live and dead cells were assessed using calcein-acetoxymethylester (CAM) and SYTOX Orange (Invitrogen), respectively. AM is a membrane-permeable, fluorogenic esterase substrate that is hydrolyzed intracellularly to a green fluorescent product (calcein) in live cells. SYTOX Orange is a high-affinity nucleic acid stain that easily penetrates cells with compromised plasma membranes and yet will not cross the membranes of live cells. After incubation with SYTOX Orange, the nucleic acids of dead cells fluoresce bright orange. […] Five fields were randomly selected from each well and the cell numbers were analyzed by ImageJ (NIH) in a blinded fashion.

female FVB mice = assay: Dose escalation and 14-day MTD study in female FVB mice; type: in vivo; conditions: for hematology parameters / survival: repeat dose study; for clinical chemistry: all treatment groups; for single-dose level at which all animals survived to 48 h: female, FVB, mouse, in vivo; for survival: high dose 75 mg/kg
Method: In Vivo Range Finding Toxicity Studies in Mice and Rats: Dose escalation and 14-day MTD study of SRI-011381 and SRI-011382 in female FVB mice: The objectives of this study were to determine the maximum tolerated dose (MTD) and a no observable adverse effect level (NOAEL) in female FVB mice following a daily oral dose administration for 14 consecutive days. An initial dose escalation was performed with intraperitoneal (ip), oral (po), and intravenous (iv) dose routes for a single-dose MTD of SRI-011381 and SRI-011382.
Subsequently, three dose levels (10, 30, and 75 mg/kg) and a vehicle control group were used in the 14-day oral dose administration to determine the MTD and NOAEL based on changes in bodyweight, clinical observations, serum chemistry, hematology and gross organ physiology in 5 female mice per treatment group.
The objectives of this study were to determine maximum tolerated dose (MTD) and a no observable adverse effect level (NOAEL) in female FVB mice following a daily oral dose administration for 14 consecutive days. After a dose escalation single dose study with doses up to 400 mg/kg, three dose levels were selected for the repeat dose study, 10, 30 and 75 mg/kg, administered […]. The MTD is the maximum dose administered that results in less than 10% body weight loss compared to controls and no other dose limiting adverse effects (e.g. clinical pathology).

TGF-β signaling = assay: Bioluminescence in SBE-luc reporter mice; type: in vivo, mouse; conditions: brain/CNS bioluminescence
Method: The most promising compounds out of these screens were tested for their neuroprotective potential in B103 rat neuroblastoma cells and primary mouse neurons derived from E16 forebrains. Compounds were also tested for their capacity to reduce varicosities and tortuosity in primary mouse neurons. Accordingly, novel neuroprotectant small molecules have been identified that are as potent or better than TGF-β. Importantly, they fulfilled the critical neuroprotective properties in neuronal cell lines and primary hippocampal mouse neurons. • Compounds based on the 11H core: The present compositions and methods include salts of the active compounds and formulations, in particular pharmaceutically acceptable compositions for administration to an animal or human subject and containing active compounds. 129 analogs or derivatives of 11H were screened by a cell-based assay for their ability to increase TGF-β activity, i.e. to act as a TGF agonist. In particular, one compound (a) designated as SRI-011381 (381) was identified as especially advantageous, although active derivatives thereof are contemplated and have been identified. • Effects of TGF-β analogs in vitro: Some of the small-molecule TGF-β agonist compounds were tested for neuroprotection activity and toxicity in vitro (cell culture). In addition, the mechanism of action of the agonists was explored using cells with different genetic backgrounds with respect to protein of the […] signaling pathway. • Animal studies: Transgenic mice harboring the SBE-luc reporter gene were generated and used to test the derivatives of compound 11H in vivo. These “reporter mice” mice express SBE-luc (i.e., “the transgene”) in all cells of the body. Intraperitoneal injection of luciferin into SBE-luc-expressing mice produces bioluminescence generated by luciferase and photons penetrating the skull can be imaged using sensitive camera systems.
SBE-luciferase transgenic mice: Two-month old SBE-luciferase transgenic mice receive different concentrations of a test compound either s.q., ip., or orally by gavage. […] Following administration of the test or control compounds, mice are injected with luciferin ip. At, for example, 2, 8, and 16 hours following injection of luciferin, the mice are imaged to detect bioluminescence as described above. Brains may be harvested 16 hours following test compound injection, and may be divided sagittally. For example, one hemi-brain can be homogenized in luciferase assay buffer for measurement of reporter gene activation, while the other hemi-brain can be frozen at −70° C. for future study, including sectioning into individual brain regions

[1] = Metabolic stability in human liver microsomes; type: in vitro ADME
Method: Metabolic Stability: SRI-011381 (1 and 10 μM) was incubated with human liver microsomes (pooled from several donors) and cofactors.

For `O=C(NC1CCCCC1)N(Cc1ccccc1)CC1CCNCC1` [SRI-011381, 1-Benzyl-3-cyclohexyl-1-(piperidin-4-ylmethyl)urea], the LD50 (primary rat hepatocytes; rat hepatocytes, MTT) was “greater than 250 μM”, the “cell survival, protection relative to TGF-β1” value (B103 neuroblastoma cells) was “better protection than TGF-β1” and the hematology parameters (female FVB mice; 10 mg/kg) was “no significant differences relative to controls”. For the same compound, the “absolute WBCs” value (female FVB mice; 30 mg/kg, 14 days) was “significantly decreased”, the hematology parameters (female FVB mice; 30 mg/kg) was “minor changes in WBCs only” and the “hematology parameters (RBCs, hematocrit, hemoglobin)” value (female FVB mice; 75 mg/kg (high dose), 14 days) was “reductions in red blood cells (RBCs), hematocrit and hemoglobin; also recorded: RBCs, hematocrit and hemoglobin were all significantly reduced; also recorded: significantly reduced hematocrit, hemoglobin, RBCs, and WBCs”. For the same compound, the clinical signs (female FVB mice; 75 mg/kg, 14 days) was “hunched posture, hypoactivity and ruffled fur”, the “neutrophils (% and absolute)” value (female FVB mice; 75 mg/kg, 14 days) was “increased” and the reticulocytes (female FVB mice; 75 mg/kg, 14 days) was “significantly elevated”. The “body weight or body weight change” value (female FVB mice; 10, 30, 75 mg/kg, 14 days, relative to controls) was “no significant differences in body weight or body weight change”, the “lymphocytes (% and absolute)” value (female FVB mice; 30 and 75 mg/kg, 14 days) was “decreased” and the clinical chemistry (female FVB mice; 14 days) was “no significant changes in clinical chemistry”. The “single-dose level at which all animals survived to 48 h” value (from here on “single-dose level”) (female FVB mice; ip) was “up to 100 mg/kg”, the “single-dose level” value (female FVB mice; iv) was at most 15 mg/kg and the “single-dose level” value (female FVB mice; po) was at most 200 mg/kg. For the same compound, the survival (female FVB mice) was “survived to the scheduled sacrifice on Day 15”, the clinical observations (female FVB mice; two lower dose groups (10, 30 mg/kg), 14 days) was “appeared normal” and the “activation of TGF-β signaling in SBE-luc reporter mice” value (from here on “activation of TGF-β signaling”) (TGF-β signaling) was “penetrate into the CNS and activate TGF-β signaling; also recorded: bioavailable in the CNS and activate TGF-β signaling; also recorded: activates TGF-β signaling in the brain”. For the same compound, the “activation of TGF-β signaling” value (TGF-β signaling; listed as 381) was “activates TGF-β signaling in reporter mice” and the compound unchanged ([1]; 1 and 10 μM, after 60 min) was “Approximately 80%”.
In the case of `O=C(NC1CCCCC1)N(C/C=C/c1ccc(F)cc1)CC1CCNCC1` [SRI-011382], the “cytotoxicity in rat hepatocytes” value (primary rat hepatocytes; rat, 50 μM) was “cytotoxic at 50 μM”, the “cell survival, protection” value (B103 neuroblastoma cells; 1 μM, 5 μM Aβ) was “slightly lower protection” and the “cell survival, protection relative to TGF-β” value (B103 neuroblastoma cells; 3 μM, TGF-β 1 ng/ml) was “better protection than TGF-β”. For the same compound, the Aβ-induced cell death (B103 neuroblastoma cells; Aβ 24 h, added 2 h before Aβ) was “inhibit Aβ-induced cell death”, the “cell survival, protection relative to TGF-β1” value (B103 neuroblastoma cells) was “better protection than TGF-β1” and the hematology parameters (female FVB mice; 30 mg/kg) was “reduced hematocrit, hemoglobin, RBCs, and WBCs”. The clinical signs (female FVB mice; 75 mg/kg, 14 days) was “hunched posture, hypoactivity and ruffled fur”, the clinical chemistry (female FVB mice; 14 days) was “no significant changes” and the survival (female FVB mice) was “lethality to the entire treatment group”. For the same compound, the “activation of TGF-β signaling” value (TGF-β signaling) was “bioavailable in the CNS and activate TGF-β signaling” and the metabolic stability [1] was “desirable level of metabolic stability”.
